From patent US11478483B2, “Method of treating hypertension” (Cipla Limited, priority 2017, dated 2022)
Values joined by “and” are separate entries in the source; they are usually repeats but may differ in a detail not shown here. Identical values can stand only once. Counter-ions that a name gives are not always drawn.

How the values were obtained:
[1] = system: rats with monocrotaline induced pulmonary arterial hypertension; experiment: Pulmonary arterial hypertension efficacy model: monocrotaline rat, hemodynamic evaluation; assay type: in vivo, Male Sprague-Dawley rats; details: for Right Ventricle (RV), Mean / Right Ventricle/Body Weight, Mean / Right Ventricular Pressure, Mean / Right Ventricular Systolic Pressure (RVSP), Mean: group mean; for Right Ventricle (RV), Mean / Right Ventricle/Body Weight, Mean / Right Ventricular Pressure, Mean / Right Ventricular Systolic Pressure (RVSP), Mean / Right Ventricle (RV) / Right Ventricle/Body Weight / Right Ventricular Pressure / Right Ventricular Systolic Pressure (RVSP): MCT 50 mg/kg s.c., Day 28; for Right Ventricle (RV) / Right Ventricle/Body Weight / Right Ventricular Pressure / Right Ventricular Systolic Pressure (RVSP): individual animals
Procedure: The studies were conducted for hemodynamic evaluation of quetiapine in anesthetized sprague dawley rats treated with monocrotaline (“MCT”) to induce pulmonary arterial hypertension. Sildenafil was used as an internal control to compare the effects of Quetiapine.
The effects of Quetiapine were evaluated in rats with monocrotaline induced pulmonary arterial hypertension using sildenafil as standard care treatment. Male Sprague-Dawley rats were orally administered vehicle, Quetiapine (40 mg/kg, divided into a BID regimen given every day for 28 days starting on Day 1), or sildenafil (100 mg/kg, administered once daily) (n=12 in each group). Rats received a single injection of monocrotaline (50 mg/kg, s.c.) on Study Day 1. On the twenty-eighth day following monocrotaline dosing, the rats were anesthetized with ketamine/xylazine for terminal monitoring of pulmonary and systemic arterial pressures along with heart rate.
Vehicle (0.5% Methylcellulose+0.2% Tween 80 in deionized water, Quetiapine (40 mg/kg dib for 28 days; Sildenafil ([…], administered once daily)
Male Sprague-Dawley rats in groups I, II, III and IV and V were administered 50 mg/kg of body weight of Monocrotaline in DMSO subcutaneously to induce PAH on day 1. The DMSO group (Group I, negative control) received a single dose of DMSO subcutaneously on day 1. The vehicle group received 5 ml of vehicle every morning. The Quetiapine as well as sildenafil groups were orally administered Quetiapine (40 mg/kg, divided into a BID regimen given every day for 28 days starting on Day 1), or sildenafil (100 mg/kg, administered once daily). On the twenty-eighth day after monocrotaline dosing, the rats were anesthetized with ketamine/xylazine for terminal monitoring of pulmonary and systemic arterial pressures along with heart rate.

[2] = after oral administration; cited from earlier work
[3] = Quetiapine 40 mg/Kg bid p.o. for 28 days
[4] = Sildenafil 100 mg/kg p.o. once daily

In the case of `OCCOCCN1CCN(C2=Nc3ccccc3Sc3ccccc32)CC1` [Quetiapine], the “activity in controlling or reducing PAH compared with Sildenafil” value ([1]; MCT rats, Quetiapine 40 mg/kg bid vs Sildenafil 100 mg/kg) is reported as “comparable among with Sildenafil activity”, the “systolic and mean pulmonary arterial pressures compared to the vehicle group” value ([1]; after 28 days, Quetiapine 40 mg/kg bid, MCT rats) is reported as “differences in systolic and mean pulmonary arterial pressures” and the “Right Ventricle (RV), Mean” value [1, 3] is reported as 0.276 g. For the same molecule, the “Right Ventricle/Body Weight, Mean” value [1, 3] was 0.0008 g, the “Right Ventricular Pressure, Mean” value [1, 3] was 22.414 mmHg and the “Right Ventricular Systolic Pressure (RVSP), Mean” value [1, 3] was 47.511 mmHg. For the same molecule, the “Right Ventricle (RV)” value [1, 3] was 0.336 g and 0.337 g and 0.312 g and 0.260 g and 0.193 g and 0.353 g and 0.225 g and 0.276 g and 0.190 g, the “Right Ventricle/Body Weight” value [1, 3] was 0.0010 g (3×) and 0.0007 g and 0.0006 g (3×) and 0.0012 g and 0.0008 g and the “Right Ventricular Pressure” value [1, 3] was 27.940 mmHg and 21.646 mmHg and 22.967 mmHg and 16.792 mmHg and 19.956 mmHg and 24.109 mmHg and 28.929 mmHg and 18.440 mmHg and 20.951 mmHg. For the same molecule, the “Right Ventricular Systolic Pressure (RVSP)” value [1, 3] was 54.140 mmHg and 47.463 mmHg and 43.052 mmHg and 36.213 mmHg and 41.515 mmHg and 68.747 mmHg and 54.503 mmHg and 37.045 mmHg and 44.925 mmHg.
For `OCCOCCN1CCN(C2=Nc3ccccc3Sc3ccccc32)CC1` [Quetiapine fumarate], the “time to reach peak plasma concentrations” value [2] is listed as 1.5 h.
For `CCCc1nn(C)c2c(=O)[nH]c(-c3cc(S(=O)(=O)N4CCN(C)CC4)ccc3OCC)nc12` [Sildenafil], the “Right Ventricle (RV), Mean” value [1, 4] was 0.247 g, the “Right Ventricle/Body Weight, Mean” value [1, 4] was 0.0006 g and the “Right Ventricular Pressure, Mean” value [1, 4] was 13.929 mmHg. For the same molecule, the “Right Ventricular Systolic Pressure (RVSP), Mean” value [1, 4] was 29.648 mmHg, the “Right Ventricle (RV)” value [1, 4] was 0.236 g and 0.440 g and 0.228 g and 0.207 g and 0.232 g and 0.308 g and 0.229 g and 0.261 g and 0.083 g and the “Right Ventricle/Body Weight” value [1, 4] was 0.0007 g (3×) and 0.0009 g and 0.0006 g (4×) and 0.0003 g. For the same molecule, the “Right Ventricular Pressure” value [1, 4] was 16.804 mmHg and 11.481 mmHg and 15.226 mmHg and 11.673 mmHg and 14.427 mmHg and 14.139 mmHg and 16.310 mmHg and 12.947 mmHg and 12.352 mmHg and the “Right Ventricular Systolic Pressure (RVSP)” value [1, 4] was 33.864 mmHg and 23.627 mmHg and 31.322 mmHg and 24.486 mmHg and 29.450 mmHg and 31.316 mmHg and 32.922 mmHg and 34.262 mmHg and 25.579 mmHg.
